Assay results: ChEMBL document CHEMBL3734705, “Synthesis and in vitro cytotoxicity of novel C-12 substituted-14-deoxy-andrographolide derivatives as potent anti-cancer agents” (2015)

What was measured:
[1] = Cytotoxicity against human OVCAR4 cells assessed as growth level at 10 uM after 48 hrs by SRB assay; assay type: functional, OVCAR-4
[2] = tested on: K562; assay: Cytotoxicity against human K562 cells assessed as growth inhibition at 10 uM after 48 hrs by SRB assay; assay type: functional; details: K562, 48 h, read-out: GI
[3] = tested on: SN12C; assay: Cytotoxicity against human SN12C cells assessed as growth inhibition at 10 uM after 48 hrs by SRB assay; assay type: functional; details: read-out: GI
[4] = Cytotoxicity against human SF295 cells assessed as growth inhibition at 10 uM after 48 hrs by SRB assay; assay type: functional; details: SF-295, 48 h, read-out: GI
[5] = Cytotoxicity against human HCT15 cells assessed as growth level at 10 uM after 48 hrs by SRB assay; assay type: functional, HCT-15
[6] = Cytotoxicity against human Caki1 cells assessed as growth level at 10 uM after 48 hrs by SRB assay; assay type: functional, CAKI-1
[7] = Cytotoxicity against human SF539 cells assessed as growth level at 10 uM after 48 hrs by SRB assay; assay type: functional, SF-539
[8] = Cytotoxicity against human HCC2998 cells assessed as growth inhibition at 10 uM after 48 hrs by SRB assay; assay type: functional; details: HCC 2998, 48 h, read-out: GI
[9] = tested on: MDA-MB-435; assay: Cytotoxicity against human MDA-MB-435 cells assessed as growth inhibition at 10 uM after 48 hrs by SRB assay; assay type: functional; details: MDA-MB-435, 48 h, read-out: GI
[10] = tested on: SR; assay: Cytotoxicity against human SR cells assessed as growth level at 10 uM after 48 hrs by SRB assay; assay type: functional
[11] = Cytotoxicity against human DU145 cells assessed as growth inhibition at 10 uM after 48 hrs by SRB assay; assay type: functional; details: DU-145, 48 h, read-out: GI
[12] = Cytotoxicity against human OVCAR3 cells assessed as growth inhibition at 10 uM after 48 hrs by SRB assay; assay type: functional; details: OVCAR-3, 48 h, read-out: GI
[13] = Cytotoxicity against human BT549 cells assessed as growth level at 10 uM after 48 hrs by SRB assay; assay type: functional, BT-549
[14] = Cytotoxicity against human UACC62 cells assessed as growth level at 10 uM after 48 hrs by SRB assay; assay type: functional, UACC-62
[15] = tested on: NCI-H23; assay: Cytotoxicity against human NCI-H23 cells assessed as growth inhibition at 10 uM after 48 hrs by SRB assay; assay type: functional; details: NCI-H23, 48 h, read-out: GI
[16] = tested on: NCI-H322M; assay: Cytotoxicity against human NCI-H322M cells assessed as growth level at 10 uM after 48 hrs by SRB assay; assay type: functional
[17] = tested on: M14; assay: Cytotoxicity against human M14 cells assessed as growth level at 10 uM after 48 hrs by SRB assay; assay type: functional
[18] = tested on: MDA-MB-435; assay: Cytotoxicity against human MDA-MB-435 cells assessed as growth level at 10 uM after 48 hrs by SRB assay; assay type: functional
[19] = tested on: SK-MEL-28; assay: Cytotoxicity against human SK-MEL-28 cells assessed as growth inhibition at 10 uM after 48 hrs by SRB assay; assay type: functional; details: SK-MEL-28, 48 h, read-out: GI
[20] = Cytotoxicity against human DU145 cells assessed as growth level at 10 uM after 48 hrs by SRB assay; assay type: functional, DU-145
[21] = Cytotoxicity against human HOP92 cells assessed as growth level at 10 uM after 48 hrs by SRB assay; assay type: functional, HOP-92
[22] = tested on: MDA-MB-468; assay: Cytotoxicity against human MDA-MB-468 cells assessed as growth level at 10 uM after 48 hrs by SRB assay; assay type: functional
[23] = tested on: T47D; assay: Cytotoxicity against human T47D cells assessed as growth inhibition at 10 uM after 48 hrs by SRB assay; assay type: functional; details: read-out: GI
[24] = Cytotoxicity against human HL-60(TB) cells assessed as growth level at 10 uM after 48 hrs by SRB assay; assay type: functional
[25] = Cytotoxicity against human SF268 cells assessed as growth level at 10 uM after 48 hrs by SRB assay; assay type: functional, SF-268
[26] = tested on: MDA-MB-468; assay: Cytotoxicity against human MDA-MB-468 cells assessed as growth inhibition at 10 uM after 48 hrs by SRB assay; assay type: functional; details: MDA-MB-468, 48 h, read-out: GI
[27] = tested on: NCI-H522; assay: Cytotoxicity against human NCI-H522 cells assessed as growth level at 10 uM after 48 hrs by SRB assay; assay type: functional
[28] = Cytotoxicity against human UACC257 cells assessed as growth inhibition at 10 uM after 48 hrs by SRB assay; assay type: functional; details: UACC-257, 48 h, read-out: GI
[29] = Cytotoxicity against human RPMI8226 cells assessed as growth inhibition at 10 uM after 48 hrs by SRB assay; assay type: functional; details: RPMI-8226, 48 h, read-out: GI

C=C1CC[C@@H]2[C@](C)(COC(C)=O)[C@H](OC(C)=O)CC[C@@]2(C)[C@@H]1CC(NCCCC)C1=CCOC1=O (mixture of isomers)
Activity [1]: 85.7%
inhibition of growth at 10 µM [2]: 30.5%
inhibition of growth at 10 µM [3]: 10.2%
inhibition of growth at 10 µM [4]: 5.72%
Activity [5]: 96.89%
Activity [6]: 90.95%
Activity [7]: 90.54%
inhibition of growth at 10 µM [8]: 7.9%
inhibition of growth at 10 µM [9]: 11.4%
Activity [10]: 48.54%
inhibition of growth at 10 µM [11]: 0.82%
inhibition of growth at 10 µM [12]: 8.88%
Activity [13]: 89.2%
Activity [14]: 72.38%
inhibition of growth at 10 µM [15]: 10.3%
Activity [16]: 96.22%
Activity [17]: 92.75%
Activity [18]: 88.61%
inhibition of growth at 10 µM [19]: 1.91%
Activity [20]: 99.18%
Activity [21]: 53.32%
Activity [22]: 66.18%
inhibition of growth at 10 µM [23]: 28%
Activity [24]: 93.82%
Activity [25]: 76.97%
inhibition of growth at 10 µM [26]: 33.8%
Activity [27]: 79.13%
inhibition of growth at 10 µM [28]: 14.8%
inhibition of growth at 10 µM [29]: 39.5%

C=C1CC[C@@H]2[C@](C)(COC(C)=O)[C@H](OC(C)=O)CC[C@@]2(C)[C@@H]1CC(NCCCCCCCC)C1=CCOC1=O (mixture of isomers)
Activity [1]: 52.34%
inhibition of growth at 10 µM [2]: 65.3%
inhibition of growth at 10 µM [3]: 26.9%
inhibition of growth at 10 µM [4]: 19%
Activity [5]: 66.95%
Activity [6]: 68.67%
Activity [7]: 89.25%
inhibition of growth at 10 µM [8]: 8.56%
inhibition of growth at 10 µM [9]: 22.4%
Activity [10]: 36.8%
inhibition of growth at 10 µM [11]: 11.3%
inhibition of growth at 10 µM [12]: 51%
Activity [13]: 69.6%
Activity [14]: 47.66%
inhibition of growth at 10 µM [15]: 29.2%
Activity [16]: 98.01%
Activity [17]: 75.91%
Activity [18]: 77.59%
inhibition of growth at 10 µM [19]: 14.4%
Activity [20]: 88.73%
Activity [21]: 44.59%
Activity [22]: 32.04%
inhibition of growth at 10 µM [23]: 42%
Activity [24]: 58.93%
Activity [25]: 67.83%
inhibition of growth at 10 µM [26]: 68%
Activity [27]: 64.41%
inhibition of growth at 10 µM [28]: 38.9%
inhibition of growth at 10 µM [29]: 64%

C=C1CC[C@@H]2[C@](C)(COC(C)=O)[C@H](OC(C)=O)CC[C@@]2(C)[C@@H]1CC(NCc1ccc(F)cc1)C1=CCOC1=O (mixture of isomers)
Activity [1]: 30.87%
inhibition of growth at 10 µM [2]: 81.2%
inhibition of growth at 10 µM [3]: 53.8%
inhibition of growth at 10 µM [4]: 3.87%
Activity [5]: 37.04%
Activity [6]: 45.98%
Activity [7]: 64.45%
inhibition of growth at 10 µM [8]: 10.7%
inhibition of growth at 10 µM [9]: 67.3%
Activity [10]: 7.69%
inhibition of growth at 10 µM [11]: 30.2%
inhibition of growth at 10 µM [12]: 76.3%
Activity [13]: 28.73%
Activity [14]: 32.2%
inhibition of growth at 10 µM [15]: 42.1%
Activity [16]: 72.54%
Activity [17]: 37.3%
Activity [18]: 32.73%
inhibition of growth at 10 µM [19]: 22.2%
Activity [20]: 69.82%
Activity [21]: 18.82%
Activity [22]: 27.52%
inhibition of growth at 10 µM [23]: 73.4%
Activity [24]: -9.52%
Activity [25]: 62.59%
inhibition of growth at 10 µM [26]: 72.5%
Activity [27]: 20.93%
inhibition of growth at 10 µM [28]: 54.2%
inhibition of growth at 10 µM [29]: 98.7%
